Measurements taken from ChEMBL document CHEMBL1201862, “PubChem BioAssay data set” (2004).
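1) Cells in 96-well plates. 2) Compound, 48 h, 5 concentrations. 3) Linear interpolation between surrounding doses. 4) Unreached endpoint = highest concentration. GI50 marks 50% less growth.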 Activity calls are given as the source filed them. Rule as the data show it: active = GI50 up to about 1.1 µM and inactive = higher.

Key:
Experiment in all cases: NCI tumour cell line growth inhibition, 48 h
786-0 = system: 786-0
A498 = system: A498
A549 = system: A549
ACHN = system: ACHN
CAKI-1 = system: CAKI-1
CCRF-CEM = system: CCRF-CEM
COLO 205 = system: COLO 205
DLD-1 = system: DLD-1
DMS-114 = system: DMS-114
DMS-273 = system: DMS-273
EKVX = system: EKVX
HCC 2998 = system: HCC 2998
HCT-116 = system: HCT-116
HCT-15 = system: HCT-15
HL-60 = system: HL-60
HOP-18 = system: HOP-18
HOP-62 = system: HOP-62
HOP-92 = system: HOP-92
HT-29 = system: HT-29
IGROV-1 = system: IGROV-1
K562 = system: K562
KM-20L2 = system: KM-20L2
KM12 = system: KM12
LOX IMVI = system: LOX IMVI
LXFL 529 = system: LXFL 529
M14 = system: M14
M19-MEL = system: M19-MEL
MOLT-4 = system: MOLT-4
Malme-3M = system: Malme-3M
NCI-H226 = system: NCI-H226
NCI-H23 = system: NCI-H23
NCI-H460 = system: NCI-H460
NCI-H522 = system: NCI-H522
OVCAR-3 = system: OVCAR-3
OVCAR-4 = system: OVCAR-4
OVCAR-5 = system: OVCAR-5
OVCAR-8 = system: OVCAR-8
RPMI-8226 = system: RPMI-8226
RXF 393 = system: RXF 393
SF-268 = system: SF-268
SF-295 = system: SF-295
SF-539 = system: SF-539
SK-MEL-28 = system: SK-MEL-28
SK-MEL-2 = system: SK-MEL-2
SK-MEL-5 = system: SK-MEL-5
SK-OV-3 = system: SK-OV-3
SN12C = system: SN12C
SNB-19 = system: SNB-19
SNB-75 = system: SNB-75
SNB-78 = system: SNB-78
SR = system: SR
SW-620 = system: SW-620
TK-10 = system: TK-10
U-251 = system: U-251
UACC-257 = system: UACC-257
UACC-62 = system: UACC-62
UO-31 = system: UO-31
XF498 = system: XF498
RXF 631 = system: RXF 631

With O=C1C/C(Br)=C\c2ccccc2-c2ccccc21 the GI50 (786-0) was 1.4 µM (inactive), the GI50 (A498) was 8.51 µM (inactive) and the GI50 (A549) was 8.26 µM (inactive). The GI50 (ACHN) was 1.91 µM (inactive), the GI50 (CAKI-1) was 1.98 µM (inactive) and the GI50 (CCRF-CEM) was 1.06 µM (active). The GI50 (COLO 205) was 3.76 µM (inactive), the GI50 (DLD-1) was 1.11 µM (active) and the GI50 (DMS-114) was 2.79 µM (inactive). The GI50 (DMS-273) was 2.19 µM (inactive), the GI50 (EKVX) was 9.82 µM (inactive) and the GI50 (HCC 2998) was 7.14 µM (inactive). The GI50 (HCT-116) was 1.8 µM (inactive), the GI50 (HCT-15) was 1.56 µM and the GI50 (HL-60) was 1.71 µM (inactive). For the same molecule, the GI50 (HOP-18) was 4.48 µM (inactive), the GI50 (HOP-62) was 3.05 µM (inactive) and the GI50 (HOP-92) was 1.85 µM (inactive). For the same molecule, the GI50 (HT-29) was 2.07 µM (inactive), the GI50 (IGROV-1) was 3.1 µM (inactive) and the GI50 (K562) was 1.06 µM (active). The GI50 (KM-20L2) was 2.84 µM (inactive), the GI50 (KM12) was 3.52 µM (inactive) and the GI50 (LOX IMVI) was 0.869 µM (active). The GI50 (LXFL 529) was 1.73 µM (inactive), the GI50 (M14) was 2.07 µM (inactive) and the GI50 (M19-MEL) was 1.87 µM (inactive). For the same molecule, the GI50 (MOLT-4) was 2.16 µM (inactive), the GI50 (Malme-3M) was 2.16 µM (inactive) and the GI50 (NCI-H226) was 2.66 µM (inactive). For the same molecule, the GI50 (NCI-H23) was 3.16 µM (inactive), the GI50 (NCI-H460) was 2.86 µM (inactive) and the GI50 (NCI-H522) was 0.429 µM (active). For the same molecule, the GI50 (OVCAR-3) was 2.45 µM (inactive), the GI50 (OVCAR-4) was 2.53 µM (inactive) and the GI50 (OVCAR-5) was 2.69 µM (inactive). The GI50 (OVCAR-8) was 2.19 µM (inactive), the GI50 (RPMI-8226) was 1.52 µM (inactive) and the GI50 (RXF 393) was 1.43 µM (inactive). The GI50 (SF-268) was 2.85 µM (inactive), the GI50 (SF-295) was 4.98 µM (inactive) and the GI50 (SF-539) was 2.16 µM (inactive). For the same molecule, the GI50 (SK-MEL-28) was 1.05 µM (active), the GI50 (SK-MEL-2) was 2.7 µM (inactive) and the GI50 (SK-MEL-5) was 5.4 µM (inactive). The GI50 (SK-OV-3) was 3.03 µM (inactive), the GI50 (SN12C) was 2.04 µM (inactive) and the GI50 (SNB-19) was 6.89 µM (inactive). The GI50 (SNB-75) was 2.26 µM (inactive), the GI50 (SNB-78) was 3.85 µM (inactive) and the GI50 (SR) was 0.405 µM (active). For the same molecule, the GI50 (SW-620) was 1.39 µM (inactive), the GI50 (TK-10) was 4.78 µM (inactive) and the GI50 (U-251) was 2.51 µM (inactive). For the same molecule, the GI50 (UACC-257) was 4.19 µM (inactive), the GI50 (UACC-62) was 2.23 µM (inactive) and the GI50 (UO-31) was 2.4 µM (inactive). The GI50 (XF498) was 1.76 µM (inactive).

For Cc1nnc2n1N=C(CC(=O)c1ccc(O)cc1O)CN2N, the GI50 (786-0) was > 100 µM (inactive), the GI50 (A498) was > 100 µM (inactive) and the GI50 (A549) was > 100 µM (inactive). The GI50 (ACHN) was > 100 µM (inactive), the GI50 (CAKI-1) was > 100 µM (inactive) and the GI50 (CCRF-CEM) was > 100 µM (inactive). The GI50 (COLO 205) was 19.2 µM (inactive), the GI50 (DLD-1) was > 100 µM (inactive) and the GI50 (DMS-114) was 19.6 µM (inactive). For the same molecule, the GI50 (DMS-273) was 40.4 µM (inactive), the GI50 (EKVX) was > 100 µM (inactive) and the GI50 (HCC 2998) was > 100 µM (inactive). The GI50 (HCT-116) was 55.7 µM (inactive), the GI50 (HCT-15) was 15.5 µM and the GI50 (HL-60) was 75.3 µM (inactive). For the same molecule, the GI50 (HOP-62) was > 100 µM (inactive), the GI50 (HT-29) was > 100 µM (inactive) and the GI50 (IGROV-1) was > 100 µM (inactive). The GI50 (K562) was > 100 µM (inactive), the GI50 (KM-20L2) was > 100 µM (inactive) and the GI50 (KM12) was > 100 µM (inactive). The GI50 (LOX IMVI) was 68.9 µM (inactive), the GI50 (LXFL 529) was > 100 µM (inactive) and the GI50 (M14) was > 100 µM (inactive). The GI50 (M19-MEL) was 91.4 µM (inactive), the GI50 (Malme-3M) was > 100 µM (inactive) and the GI50 (NCI-H23) was > 100 µM (inactive). The GI50 (NCI-H460) was 38.7 µM (inactive), the GI50 (OVCAR-4) was > 100 µM (inactive) and the GI50 (OVCAR-5) was > 100 µM (inactive). The GI50 (RXF 393) was > 100 µM (inactive), the GI50 (RXF 631) was > 100 µM (inactive) and the GI50 (SF-268) was > 100 µM (inactive). For the same molecule, the GI50 (SF-295) was > 100 µM (inactive), the GI50 (SF-539) was > 100 µM (inactive) and the GI50 (SK-MEL-28) was > 100 µM (inactive). For the same molecule, the GI50 (SK-MEL-2) was > 100 µM (inactive), the GI50 (SK-MEL-5) was > 100 µM (inactive) and the GI50 (SK-OV-3) was > 100 µM (inactive). The GI50 (SN12C) was > 100 µM (inactive), the GI50 (SNB-19) was > 100 µM (inactive) and the GI50 (SNB-78) was > 100 µM (inactive). For the same molecule, the GI50 (SW-620) was 14.9 µM (inactive), the GI50 (TK-10) was > 100 µM (inactive) and the GI50 (U-251) was > 100 µM (inactive). For the same molecule, the GI50 (UACC-257) was > 100 µM (inactive), the GI50 (UACC-62) was > 100 µM (inactive) and the GI50 (UO-31) was > 100 µM (inactive).
